Experimental data taken from article PMC10108353, “Design and Pharmacological Characterization of α4β1 Integrin Cyclopeptide Agonists: Computational Investigation of Ligand Determinants for Agonism versus Antagonism” (Journal of Medicinal Chemistry, 2023).
Starred links: 1 amine or outer side, 2 acyl side, 3 side chain; linkers in the order of their positions; H or OH if unused. Positions of bridges follow the written chain, without caps; N, C: chain ends. Non-standard residues stand in square brackets, D forms with d. Residues, ends and D or L forms follow the SMILES beside them. Groups on a side chain read outwards from the residue. *: point of attachment. dPhe(4-NH2) = Nc1ccc(C[C@@H](N)C(=O)O)cc1; Phe(4-NH2) = Nc1ccc(C[C@H](N)C(=O)O)cc1; X1 = O=C(Cc1ccc(N[*:1])cc1)[*:2]; NH(2-Me-phenyl) = Cc1ccccc1N*; CO = O=C([*:1])[*:2]

What was measured:
αLβ2 integrin = αLβ2 integrin (Homo sapiens, UniProt P05107+P20701); assay: Jurkat E6.1 cell adhesion to ICAM-1
Chain of αLβ2 integrin (P20701 26-1170): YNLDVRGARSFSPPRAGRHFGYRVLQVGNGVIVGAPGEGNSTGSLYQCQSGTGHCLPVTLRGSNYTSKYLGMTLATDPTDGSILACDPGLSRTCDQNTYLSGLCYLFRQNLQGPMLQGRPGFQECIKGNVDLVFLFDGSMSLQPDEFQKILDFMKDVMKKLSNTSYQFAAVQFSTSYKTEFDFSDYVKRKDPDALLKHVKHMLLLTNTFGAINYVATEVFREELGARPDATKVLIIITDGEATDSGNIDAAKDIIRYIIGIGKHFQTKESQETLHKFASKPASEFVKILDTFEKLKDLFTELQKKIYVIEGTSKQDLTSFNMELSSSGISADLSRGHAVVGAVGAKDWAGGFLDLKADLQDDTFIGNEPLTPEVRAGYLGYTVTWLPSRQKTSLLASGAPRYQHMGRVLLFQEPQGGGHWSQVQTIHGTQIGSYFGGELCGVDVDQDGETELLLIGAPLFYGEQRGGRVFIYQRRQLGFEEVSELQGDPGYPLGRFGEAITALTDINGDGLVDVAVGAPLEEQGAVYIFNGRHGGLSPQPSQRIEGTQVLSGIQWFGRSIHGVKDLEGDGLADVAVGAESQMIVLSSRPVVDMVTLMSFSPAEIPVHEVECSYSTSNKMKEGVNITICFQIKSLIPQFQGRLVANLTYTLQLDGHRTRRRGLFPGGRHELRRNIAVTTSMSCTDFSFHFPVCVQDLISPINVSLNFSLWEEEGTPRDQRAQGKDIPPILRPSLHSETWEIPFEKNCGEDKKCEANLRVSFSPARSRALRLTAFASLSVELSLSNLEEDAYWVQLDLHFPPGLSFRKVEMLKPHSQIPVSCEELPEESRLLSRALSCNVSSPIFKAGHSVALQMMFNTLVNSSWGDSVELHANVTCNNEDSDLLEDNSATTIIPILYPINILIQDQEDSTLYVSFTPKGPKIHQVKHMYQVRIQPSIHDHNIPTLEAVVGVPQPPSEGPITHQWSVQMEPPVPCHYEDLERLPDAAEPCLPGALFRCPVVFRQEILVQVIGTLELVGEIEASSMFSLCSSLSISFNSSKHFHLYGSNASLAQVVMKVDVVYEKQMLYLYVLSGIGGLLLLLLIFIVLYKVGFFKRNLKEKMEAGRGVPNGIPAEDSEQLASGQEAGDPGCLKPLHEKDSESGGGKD
Chain of αLβ2 integrin (P05107 23-769): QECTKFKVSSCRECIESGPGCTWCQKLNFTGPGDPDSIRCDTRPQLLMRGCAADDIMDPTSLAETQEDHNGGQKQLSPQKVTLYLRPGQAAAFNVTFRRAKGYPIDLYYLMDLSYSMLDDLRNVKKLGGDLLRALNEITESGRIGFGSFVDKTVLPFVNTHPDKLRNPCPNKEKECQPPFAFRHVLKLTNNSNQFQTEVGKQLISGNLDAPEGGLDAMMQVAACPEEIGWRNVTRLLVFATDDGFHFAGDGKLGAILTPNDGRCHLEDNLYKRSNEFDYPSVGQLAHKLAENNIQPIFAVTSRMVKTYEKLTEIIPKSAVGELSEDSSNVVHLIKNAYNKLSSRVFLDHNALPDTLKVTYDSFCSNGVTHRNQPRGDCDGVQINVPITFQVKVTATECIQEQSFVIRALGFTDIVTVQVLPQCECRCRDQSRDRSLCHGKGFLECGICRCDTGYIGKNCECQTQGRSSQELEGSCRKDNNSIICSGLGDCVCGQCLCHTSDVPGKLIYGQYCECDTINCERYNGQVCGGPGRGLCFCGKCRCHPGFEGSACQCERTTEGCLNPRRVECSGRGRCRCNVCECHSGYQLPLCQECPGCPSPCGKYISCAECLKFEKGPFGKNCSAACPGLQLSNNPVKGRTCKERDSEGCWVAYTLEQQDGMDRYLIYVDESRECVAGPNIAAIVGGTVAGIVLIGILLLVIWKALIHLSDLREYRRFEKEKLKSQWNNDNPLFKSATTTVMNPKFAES
Experimental: (§1) Cells were seeded in 96-well plates coated with the specific natural human recombinant ligands (Table 1) and allowed to adhere in the presence of increasing concentrations (10^–10 to 10^–4 M) of the synthesized CPPs before the determination of the number of adherent cells (as described in Experimental Section).
For adhesion assays on Jurkat E6.1, RPMI8866, or HL60 cells, black 96-well plates were coated overnight at 4 °C with VCAM-1 or ICAM-1 or MAdCAM-1 (5 μg/mL) or Fg (10 μg/mL). The cells were counted, stained with CellTracker green CMFDA (12.5 μM, 30 min at 37 °C, Life Technologies), and after three washes, were preincubated with increasing concentrations of new CPP (10^–10 to 10^–4 M) or with the vehicle (methanol) for 30 min at 37 °C. […] After three washes, adhered cells were lysed with 0.5% Triton X-100 in PBS (30 min at 4 °C) and fluorescence was measured (Ex485 nm/Em535 nm) in an EnSpire Multimode Plate Reader (PerkinElmer, Waltham, MA). […] K562 cells were counted and preincubated with various concentrations of the peptides or with the vehicle (methanol) for 30 min at RT. […] The wells were then washed with 1% BSA in PBS (phosphate-buffered saline) to take off nonadherent cells, and 50 μL of hexosaminidase substrate was added; after addition of 100 μL of stopping solution, the plates were read at 405 nm. […]

α4β1 integrin [1] = target: T1, α4β1 integrin (Homo sapiens, UniProt P05556+P13612); assay: Jurkat E6.1 cell adhesion to VCAM-1; conditions: agonist = adhesion index >1, antagonist = adhesion index <1
T1 sequence (P05556 21-798, one chain of several): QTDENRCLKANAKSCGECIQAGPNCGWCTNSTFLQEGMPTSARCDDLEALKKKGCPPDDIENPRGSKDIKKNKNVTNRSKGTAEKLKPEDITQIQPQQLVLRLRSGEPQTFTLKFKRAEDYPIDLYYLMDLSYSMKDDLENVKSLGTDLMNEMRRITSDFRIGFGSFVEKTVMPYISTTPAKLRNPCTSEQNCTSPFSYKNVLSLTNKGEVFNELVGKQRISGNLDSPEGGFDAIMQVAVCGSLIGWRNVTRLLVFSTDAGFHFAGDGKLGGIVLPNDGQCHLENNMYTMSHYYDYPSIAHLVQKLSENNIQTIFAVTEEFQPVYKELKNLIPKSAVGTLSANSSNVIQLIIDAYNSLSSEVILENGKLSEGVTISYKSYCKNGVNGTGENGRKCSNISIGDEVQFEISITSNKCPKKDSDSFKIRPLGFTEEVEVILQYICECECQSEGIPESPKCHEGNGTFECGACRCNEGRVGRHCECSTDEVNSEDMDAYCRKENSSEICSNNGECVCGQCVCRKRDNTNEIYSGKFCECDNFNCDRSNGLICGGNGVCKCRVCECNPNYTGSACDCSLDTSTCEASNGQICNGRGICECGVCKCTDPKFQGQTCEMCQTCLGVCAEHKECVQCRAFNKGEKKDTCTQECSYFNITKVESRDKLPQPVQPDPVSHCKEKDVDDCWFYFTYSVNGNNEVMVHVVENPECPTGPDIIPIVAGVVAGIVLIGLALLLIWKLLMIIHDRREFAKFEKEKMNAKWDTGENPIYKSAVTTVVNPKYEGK
Experimental: as §1
(§2) For adhesion assays on Jurkat E6.1, RPMI8866, or HL60 cells, black 96-well plates were coated overnight at 4 °C with VCAM-1 or ICAM-1 or MAdCAM-1 (5 μg/mL) or Fg (10 μg/mL). The cells were counted, stained with CellTracker green CMFDA (12.5 μM, 30 min at 37 °C, Life Technologies), and after three washes, were preincubated with increasing concentrations of new CPP (10^–10 to 10^–4 M) or with the vehicle (methanol) for 30 min at 37 °C. Then cells were plated (500 000/well) on coated wells and incubated for 30 min at 37 °C. After three washes, adhered cells were lysed with 0.5% Triton X-100 in PBS (30 min at 4 °C) and fluorescence was measured (Ex485 nm/Em535 nm) in an EnSpire Multimode Plate Reader (PerkinElmer, Waltham, MA). For adhesion assays mediated by α5β1 integrin, 96-well plates were coated by passive adsorption with FN (10 μg/mL) overnight at 4 °C. K562 cells were counted and preincubated with various concentrations of the peptides or with the vehicle (methanol) for 30 min at RT. Afterward, the cells were plated (50 000 cells/well) and incubated at RT for 1 h. The wells were then washed with 1% BSA in PBS (phosphate-buffered saline) to take off nonadherent cells, and 50 μL of hexosaminidase substrate was added; after addition of 100 μL of stopping solution, the plates were read at 405 nm. In both types of adhesion assay, the number of adherent cells was determined by comparison with a standard curve made in the same plate. Experiments were carried out in quadruplicate and repeated at least three times.
(§3) Jurkat E6.1 (expressing α4β1 and αLβ2 integrin), K562 (expressing α5β1 integrin) and HL60 (expressing αMβ2 integrin) cell lines were purchased from ATCC (Rockville, MD, USA); these cells were routinely cultured in RPMI-1640 (Life Technologies) supplemented with glutamine and 10% FBS.
(§4) Cells were grown at 37 °C under 5% CO2 humidified atmosphere.

α4β7 integrin = target: T2, α4β7 integrin (Homo sapiens, UniProt P13612+P26010); assay: cell-based; assay type: cell-based; conditions: for agonist or antagonist behaviour, MAdCAM-1/RPMI8866 α4β7: agonist = adhesion index >1, antagonist = adhesion index <1
T2 construct: RPMI8866 cells expressing α4β7 integrin to the ligand MAdCAM-1; endogenous in cells; host or cells: RPMI8866
T2 sequence (P13612 34-1032): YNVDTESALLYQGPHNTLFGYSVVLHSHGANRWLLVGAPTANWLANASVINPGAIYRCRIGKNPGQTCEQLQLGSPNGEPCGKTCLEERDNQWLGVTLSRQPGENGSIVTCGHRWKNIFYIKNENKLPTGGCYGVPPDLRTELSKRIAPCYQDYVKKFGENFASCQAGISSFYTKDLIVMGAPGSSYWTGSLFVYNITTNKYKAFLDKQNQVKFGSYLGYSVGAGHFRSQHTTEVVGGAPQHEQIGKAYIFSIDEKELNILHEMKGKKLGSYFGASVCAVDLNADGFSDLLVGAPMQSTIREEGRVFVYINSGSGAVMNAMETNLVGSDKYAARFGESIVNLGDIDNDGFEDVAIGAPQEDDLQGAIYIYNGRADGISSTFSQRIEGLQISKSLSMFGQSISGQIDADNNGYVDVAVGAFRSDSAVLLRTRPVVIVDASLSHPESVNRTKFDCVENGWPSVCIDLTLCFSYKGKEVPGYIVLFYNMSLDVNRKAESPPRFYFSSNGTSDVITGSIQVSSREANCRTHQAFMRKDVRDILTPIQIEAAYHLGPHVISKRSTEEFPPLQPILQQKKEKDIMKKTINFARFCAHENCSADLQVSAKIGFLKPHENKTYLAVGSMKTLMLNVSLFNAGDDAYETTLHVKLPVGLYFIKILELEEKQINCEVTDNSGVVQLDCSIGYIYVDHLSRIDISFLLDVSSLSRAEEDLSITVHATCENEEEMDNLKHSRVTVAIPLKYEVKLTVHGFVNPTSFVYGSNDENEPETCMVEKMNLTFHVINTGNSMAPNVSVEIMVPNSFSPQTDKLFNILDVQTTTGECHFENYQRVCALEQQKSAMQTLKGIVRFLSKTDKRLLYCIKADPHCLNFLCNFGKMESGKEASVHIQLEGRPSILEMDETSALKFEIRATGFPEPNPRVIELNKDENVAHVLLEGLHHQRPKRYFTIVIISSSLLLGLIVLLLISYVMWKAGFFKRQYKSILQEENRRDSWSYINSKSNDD
T2 sequence (P26010 20-798): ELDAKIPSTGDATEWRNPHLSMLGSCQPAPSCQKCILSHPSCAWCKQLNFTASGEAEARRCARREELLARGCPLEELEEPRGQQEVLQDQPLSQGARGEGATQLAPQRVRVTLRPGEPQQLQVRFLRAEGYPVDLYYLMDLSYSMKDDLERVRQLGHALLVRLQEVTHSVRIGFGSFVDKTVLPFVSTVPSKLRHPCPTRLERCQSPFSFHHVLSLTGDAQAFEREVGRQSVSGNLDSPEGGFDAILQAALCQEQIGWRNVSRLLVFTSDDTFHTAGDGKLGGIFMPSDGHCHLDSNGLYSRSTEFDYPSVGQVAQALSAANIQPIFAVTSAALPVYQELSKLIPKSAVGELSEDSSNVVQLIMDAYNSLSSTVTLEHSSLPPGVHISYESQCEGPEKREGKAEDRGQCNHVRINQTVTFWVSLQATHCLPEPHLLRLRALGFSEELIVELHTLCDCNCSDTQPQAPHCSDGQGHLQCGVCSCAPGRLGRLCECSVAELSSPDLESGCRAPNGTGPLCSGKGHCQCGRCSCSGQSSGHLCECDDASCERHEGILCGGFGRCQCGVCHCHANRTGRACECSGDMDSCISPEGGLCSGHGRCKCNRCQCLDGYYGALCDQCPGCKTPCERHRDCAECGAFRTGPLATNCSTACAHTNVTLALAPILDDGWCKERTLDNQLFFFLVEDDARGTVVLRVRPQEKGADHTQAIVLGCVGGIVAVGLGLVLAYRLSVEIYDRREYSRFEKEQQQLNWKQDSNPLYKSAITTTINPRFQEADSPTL
Excerpt: mediated Jurkat cell adhesion to FN.

α4β1 integrin [2] = target: T1, α4β1 integrin; assay: Jurkat E6.1 cell adhesion to FN; conditions: agonist = adhesion index >1, antagonist = adhesion index <1
Experimental: as §1, §2, §3, §4

[3] = test system: ERK1/2 phosphorylation mediated by α4β1 integrin; assay: ERK1/2 phosphorylation in Jurkat E6.1 cells (Western blot); assay type: cell-based; conditions: compound 10^–7 to 10^–9 M, no FN, vs vehicle
Experimental: Intracellular signaling generated by the interaction of ECM components with α4β1 integrin produces an increase in the phosphorylation of cytoplasmatic second messengers such as ERK1/2 that contribute to α4 integrin-mediated cell functions.
Western blot analysis was performed as previously described, with the following modifications. […] On the other hand, after 1 h incubation with integrin antagonists, the cells were then seeded on FN (10 μg/mL) coated plates for 1 h. Integrin agonists were not incubated with FN. At the end of the incubation time, Jurkat E6.1 cells were lysed on ice using a mammalian protein extraction reagent (M-PER; Pierce, Rockford, IL) supplemented with a phosphatase inhibitor cocktail. Protein extracts were quantified using a BCA protein assay kit (Pierce), separated by 12% SDS-PAGE gel, transferred onto nitrocellulose membranes, and immunoblotted with anti-phospho-ERK1/2 (1:1000) (Cell Signaling Technology, Danvers, MA) or anti-total ERK1/2 antibodies (1:2500) (Cell Signaling Technology). Protocols for digital image acquisition and analysis have been previously described.[73] Densitometric analysis of the bands is reported (mean ± SD; n = 3); the amount of phosphorylated ERK1/2 (pERK1/2) is normalized to that of total ERK1/2 (totERK1/2). Experiments were replicated independently at least three times. Statistical analyses were performed using one-way ANOVA and the post hoc Newman–Keuls test.

[4] = after 2 h, 37 °C, RP HPLC
Experimental: Enzymatic stability tests were carried out in triplicate and repeated three times using mouse serum (Sigma-Aldrich). Peptides was dissolved in Tris buffer pH 7.4 to a 10 mM concentration, and 10 mL aliquots were added to 190 mL of serum. Incubations were maintained at 37 °C, and 20 mL aliquots were sampled from the incubation mixtures at the indicated times of 0, 0.15, 0.5, 1.0, 2.0, and 3.0 h. Samples were diluted with 90 mL of CH3CN, and enzymatic activity was definitively stopped by adding 90 mL of 0.5% AcOH. After centrifugation (13 000g for 20 min), the supernatants were separated and the amount of remaining peptide was assessed by RP HPLC.

α4β1 integrin [5] = test system: α4β1 integrin; design: method as in PMID 23703610; conditions: low affinity agonist; cited from earlier work

SMILES | IC50 (αLβ2 integrin) | agonist or antagonist behaviour, VCAM-1/Jurkat E6.1 α4β1 (α4β1 integrin [1]) | IC50 (α4β7 integrin) | agonist or antagonist behaviour, MAdCAM-1/RPMI8866 α4β7 (α4β7 integrin) | agonist or antagonist behaviour, FN/Jurkat E6.1 α4β1 (α4β1 integrin [2]) | effect on ERK1/2 phosphorylation, compound administered alone [3] | stability in mouse serum [4] | IC50 (α4β1 integrin [5])
Cc1ccccc1NC(=O)Nc1ccc(C[C@@H]2NC(=O)C[C@@H](C(=O)O)NC(=O)[C@H](C(C)C)NC(=O)[C@H](C)NC(=O)[C@H](CC(C)C)NC2=O)cc1 [12a, c[(S)-Phu-Leu-Ala-Val-(S)-isoAsp]] ([Phe(4-NH2)]([CO-NH(2-Me-phenyl)])LAVD-OH; lactam N-5 (inferred)) | > 5 µM | agonist | > 5 µM | completely lost activity | agonist | significant concentration-dependent increase of ERK1/2 phosphorylation |  | 
Cc1ccccc1NC(=O)Nc1ccc(C[C@H]2NC(=O)C[C@H](C(=O)O)NC(=O)[C@H](C(C)C)NC(=O)[C@H](CC(=O)O)NC(=O)[C@H](CC(C)C)NC2=O)cc1 [3d, c[(R)-Phu-Leu-Asp-Val-(R)-isoAsp]] ([dPhe(4-NH2)]([CO-NH(2-Me-phenyl)])LDV[dD]-OH; lactam N-5 (inferred)) |  | agonist |  |  | agonist | significant concentration-dependent increase of ERK1/2 phosphorylation |  | 
Cc1ccccc1NC(=O)Nc1ccc(C[C@@H]2NC(=O)C[C@@H](C(=O)O)NC(=O)[C@H](C(C)C)NC(=O)[C@H](CC(=O)O)NC(=O)[C@H](CC(C)C)NC2=O)cc1 [3a, c[(S)-Phu-Leu-Asp-Val-(S)-isoAsp]] ([Phe(4-NH2)]([CO-NH(2-Me-phenyl)])LDVD-OH; lactam N-5 (inferred)) |  | agonist |  | agonist | agonist | significant concentration-dependent increase of ERK1/2 phosphorylation |  | 
Cc1ccccc1NC(=O)Nc1ccc(CC(=O)N[C@@H](CC(C)C)C(=O)N[C@@H](CC(=O)O)C(=O)N[C@H](C(=O)N2CCC[C@H]2C(=O)O)C(C)C)cc1 [BIO1211, MPUPA-LDVP-OH] ({NH(2-Me-phenyl)-CO}-[X1]LDVP-OH) |  |  |  | inactive |  |  | almost completely hydrolyzed | 
CCCC[C@@H](COC(=O)N(Cc1cccs1)Cc1cccs1)NC(=O)N[C@@H](CC(=O)OC)c1ccc2c(c1)OCO2 [THI0019] |  |  |  |  |  |  |  | 1000 to 2000 µM
